Where “and” joins values, the source holds several entries; their conditions need not be identical. Identical values can stand only once.
How the values were obtained:
[1] = tested on: collagen-induced thrombocyte aggregation in platelet-rich plasma; test: Antithrombotic activity: collagen-induced thrombocyte aggregation (Born and Cross); assay type: cell-based, human (healthy volunteers); settings: Homo sapiens, 10 min, 10 min incubation at 37° C.
Experimental: The thrombocyte aggregation is measured using the Born and Cross method (J. Physiol. 170: 397 (1964)) in platelet-rich plasma taken from healthy volunteers. To inhibit coagulation the blood is mixed with 3.14% sodium citrate in a ratio by volume of 1:10.
The pattern of the decrease in optical density of the platelet suspension is photometrically measured and recorded after the addition of aggregation-triggering substance. The rate of aggregation is concluded from the angle of inclination of the density curve. The point on the curve where there is maximum light transmittance is used to calculate the optical density.
The amount of collagen used is as small as possible but sufficient to produce an irreversible reaction curve. Standard commercial collagen produced by Hormonchemie of Munich is used. Before the addition of the collagen the plasma is incubated for 10 minutes with the substance at 37° C.
From the measurements obtained an EC50 is determined graphically, indicating a 50% change in the optical density in terms of the inhibition of aggregation.

[2] = tested on: mice; test: Acute toxicity, oral, mice; assay type: in vivo, mouse; settings: observation period 14 days; for animals died: 250 mg/kg single oral dose; for Approximate acute toxicity: single oral dose
Experimental: The acute toxicity of the test substances was determined as a guide on groups of 10 mice after oral administration of a single dose (observation period: 14 days): […]

[3] = molecular target: T1, thromboxane (Homo sapiens, UniProt P21731); test: Thromboxane-antagonistic activity: displacement of 3H-labelled ligand on washed human platelets; assay type: binding; settings: displacement of 3H-ligand, human platelet suspension, 60 min ambient temperature
T1 construct: endogenous in cells; host or cells: washed human platelets (platelet-rich plasma passed through Sepharose 2B)
T1 sequence (P21731 1-343): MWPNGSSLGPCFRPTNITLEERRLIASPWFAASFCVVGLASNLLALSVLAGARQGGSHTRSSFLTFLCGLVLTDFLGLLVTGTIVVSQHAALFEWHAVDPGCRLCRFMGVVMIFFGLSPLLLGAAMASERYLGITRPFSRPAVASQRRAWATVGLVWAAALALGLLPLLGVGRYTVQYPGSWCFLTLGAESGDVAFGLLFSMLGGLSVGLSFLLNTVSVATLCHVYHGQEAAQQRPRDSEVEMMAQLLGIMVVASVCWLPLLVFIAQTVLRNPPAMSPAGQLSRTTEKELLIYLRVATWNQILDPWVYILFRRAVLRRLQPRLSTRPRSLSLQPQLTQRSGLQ
Experimental: Venous human blood is anti-coagulated with 13 mM Na3 citrate and centrifuged for 10 minutes at 170×g. The supernatant platelet-rich plasma is passed through a Sepharose 2B column in order to remove the plasma proteins. Aliquots of the platelet suspension obtained are incubated with the test substance, the ligand (^3 H-labelled) and a marker ([…]) for 60 minutes at ambient temperature and then centrifuged for 20 seconds at 10,000×g. The supernatant is removed and the pellet is dissolved in NaOH. The ^3 H activity in the supernatant corresponds to the free ligand, ^14 C gives the concentration of the marker. ^3 H in the pellet corresponds to the bound ligand whilst ^14 C is used to correct for the ligand in the extracellular space. After the process has been repeated, the displacement curve is determined from the binding values for different concentrations of the test substance and the IC50 is determined.

[4] = molecular target: T2, thromboxane synthetase (Homo sapiens, UniProt P24557); test: Inhibitory effect on thromboxane synthetase (TXB2 formation from arachidonic acid in human platelets); assay type: biochemical; settings: inhibition of TXB2 formation, human platelet suspension, 14C-arachidonic acid
T2 construct: endogenous in cells; host or cells: washed human platelets (platelet-rich plasma passed through Sepharose 2B)
T2 sequence (P24557 1-533): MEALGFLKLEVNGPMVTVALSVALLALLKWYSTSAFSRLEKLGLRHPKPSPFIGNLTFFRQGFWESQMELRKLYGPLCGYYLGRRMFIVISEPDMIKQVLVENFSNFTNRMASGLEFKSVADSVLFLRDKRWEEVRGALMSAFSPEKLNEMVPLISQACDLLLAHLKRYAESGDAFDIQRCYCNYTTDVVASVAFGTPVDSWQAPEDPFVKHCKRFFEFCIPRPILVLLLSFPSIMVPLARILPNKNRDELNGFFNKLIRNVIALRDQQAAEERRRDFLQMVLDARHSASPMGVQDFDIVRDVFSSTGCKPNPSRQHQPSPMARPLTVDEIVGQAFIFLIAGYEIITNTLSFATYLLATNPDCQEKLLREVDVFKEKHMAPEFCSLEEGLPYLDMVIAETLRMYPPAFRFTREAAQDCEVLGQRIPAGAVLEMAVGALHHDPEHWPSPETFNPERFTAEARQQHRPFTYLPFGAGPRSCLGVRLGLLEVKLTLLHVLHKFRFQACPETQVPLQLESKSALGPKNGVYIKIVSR
Experimental: Venous human blood is anti-coagulated with 13 mM Na3 citrate and centrifuged for 10 minutes at 170×g. The supernatant platelet-rich plasma is passed through a Sepharose 2B column in order to remove the plasma proteins. Aliquots of the platelet suspension obtained are incubated with the test substance or with a solvent as control for 10 minutes at ambient temperature and after the addition of ^14 C-labelled arachidonic acid incubation is continued for a further 10 minutes. After this has been stopped with 50 μl of citric acid, extraction is carried out 3× with 500 μl of ethyl acetate and the combined extracts are distilled off with nitrogen. The residue is taken up in ethyl acetate, placed on TLC film and separated with chloroform:methanol:glacial acetic acid:water (90:8:1:0.8, v/v/v/v). The dried TLC films are placed on X-ray film for 3 days, the autoradiograms were developed and the active zones were marked on the film using the autoradiograms. After cutting out, the activity is measured in a scintillation counter and the inhibition of the formation of TXB2 is calculated. The IC50 is determined by linear interpolation.

[5] = tested on: lethal effects of endotoxin (E. coli 0111:B4 lipopolysaccharide); test: Inhibition of the lethal effects of endotoxin; assay type: in vivo, rat (male Sprague-Dawley)
Experimental: Male Sprague-Dawley rate are primed by intravenous injection with 0.1 mg/kg of endotoxin (a lipopolysaccharide from E. coli 0111:B4) one week before the main study. In the main study, a potentially lethal dose of E. coli (40 mg/kg) is injected intravenously and the subsequent mortality recorded over an observation period of seven days.
The test animals are given test substance B as a suspension in 0.5% tylose by oral route one hour before and 4, 8, 24 and 48 hours after the second injection of endotoxin.

[6] = tested on: bronchospasm induced by arachidonic acid; test: Inhibition of bronchospasm induced by arachidonic acid; assay type: in vivo, guinea-pig; settings: Cavia porcellus, iv; guinea-pigs, injected 10 min before arachidonic acid (0.5-2.0 mg/kg i.v.); graphical extrapolation
Experimental: Guinea-pigs anaesthetised with ethyl urethane and ventilated artificially under pressure limitation are intravenously injected with arachidonic acid (a thromboxane precursor) and the consequent bronchospasms are recorded using a modified form of the method of Konzett and Rossler. The doses of arachidonic acid (0.5-2.0 mg/kg) are selected so as to give a 60% reduction in tidal volume. Increasing doses of test substance B are injected 10 minutes before the arachidonic acid. The percentage inhibition of reduction in tidal volume is determined by comparison of the maximum reduction after the administration of arachidonic acid and the corresponding value after pretreatment with the test substance.

[7] = tested on: production of thromboxane and PGE2 in an isolated lung; test: Effect on production of thromboxane and PGE2 in an isolated lung; design: species or system guinea-pig
Experimental: Guinea-pigs are killed by a blow to the neck, the lungs are rapidly removed and washed with a tyrode solution through the pulmonary artery. The lung is perfused with the same solution (0.5 ml/min.) and ventilated under negative pressure (frequency: 52 breaths per minute, maximum pressure -20 cm H2 O). A 0.1 ml bolus of bradykinin (0.2 μM) is injected via the pulmonary arteria on two occasions, with approximately 60 minutes between boli. From 30 minutes before the second bradykinin injection 1 μM of substance B is continually added to the lung perfusate. The control lungs are perfused without the added substance. The perfusate is collected for 2 minutes be administration of bradykinin and 10 minutes thereafter. The samples are left to stand for 20 minutes at ambient temperature (conversion of thromboxane A2 into B2) and are then frozen at -20° C.
The concentrations of thromboxane B2 and PGE2 are determined by radioimmunoassay.

[8] = 1 mg/kg oral at each dosage time point (1 h before, 4, 8, 24, 48 h after endotoxin)
[9] = 10 mg/kg oral at each dosage time point (1 h before, 4, 8, 24, 48 h after endotoxin)

Compound | EC50 [1] [nM] | animals died [2] | Approximate acute toxicity [2] [mg/kg] | IC50 [3] [nM] | IC50 [4] [nM] | Rats alive/total after 2 days [5, 8] | Rats alive/total after 7 days [5, 8] | Rats alive/total after 2 days [5, 9] | Rats alive/total after 7 days [5, 9] | ED50 [6] [µg/kg] | effect on formation of PGE2 (in words) ([7]; 1 μM in lung perfusate) | effect on thromboxane production (in words) ([7]; 1 μM in lung perfusate) | Ratio of mediator release after 2nd / after 1st administration of bradykinin: Thromboxane B2 ([7]; 1 μM in perfusate at time of 2nd bradykinin, individual values, control 1.18, 0.50, 0.84) | Ratio of mediator release after 2nd / after 1st administration of bradykinin: PGE2 ([7]; 1 μM in perfusate at time of 2nd bradykinin, individual values, control 1.28, 1.12, 1.09)
Cc1ccc(S(=O)(=O)NC2Cc3ccc(C(=CCCCC(=O)O)c4cccnc4)cc3C2)cc1 (stereo not shown) [A] | 300 | 0 out of 10 | 250 | 23 | 3 | – | – | – | – | – | – | – | – | –
O=C(O)CCCCC(c1ccc(CCNS(=O)(=O)c2ccc(Cl)cc2)cc1)c1cccnc1 (stereo not shown) [D] | 1200 | 0 out of 10 | 250 | 80 | 1 | – | – | – | – | – | – | – | – | –
O=C(O)CCCC=C(c1ccc(CCNS(=O)(=O)c2ccc(C(F)(F)F)cc2)cc1)c1cccnc1 [E] | 100 | 0 out of 10 | 250 | 28 | 6 | – | – | – | – | – | – | – | – | –
O=C(O)CCCC=C(c1ccc(CCNS(=O)(=O)c2ccc(Cl)cc2)cc1)c1cccnc1 [B] | 150 | 0 out of 10 | 250 | 20 | 0.8 | 7/10 | 6/10 | 8/10 | 5/10 | 8.1 | promoting the formation of PGE2 | hinders thromboxane production | 0.0 | 5.08 and 2.23
O=C(O)CCCCC(c1cccnc1)c1ccc2c(c1)CC(NS(=O)(=O)c1ccc(Cl)cc1)C2 (stereo not shown) [C] | 300 | 0 out of 10 | 250 | 80 | 3 | – | – | – | – | – | – | – | – | –
